# From patent US6531510B1, “N,N′-bis(2-hydroxybenzyl)ethylenediamine-N,N′-diacetic acid in iron chelating therapy” (University of Florida Research Foundation, Inc., priority 1998, dated 2003)
# Counter-ions that a name gives are not always drawn.
# Tests used:
# [1] = system: iron-loaded Cebus apella monkeys; experiment: Chelator-induced iron excretion (iron-balance study) in iron-loaded Cebus apella monkeys; type: in vivo; settings: s.c., 150 μmoles/Kg; for efficiency of iron chelation: mean
# Description: After intramuscular anesthesia with ketamine, an intravenous infusion was started in a leg vein. […] Two to three infusions, separated by between 10 and 14 days, were necessary to provide about 500 mg iron per Kg body weight. […] At least twenty half-lives, sixty days, passed before using any of the animals in experiments evaluating iron-chelating agents.
# Seven days before the administration of the drug, the animals were placed in metabolic cages and started on a low-iron liquid diet. The monkeys were maintained on the low-iron liquid diet for the duration of the experiment. They were given food according to their body weight, and intake was very carefully monitored.
# Three days prior to drug administration, day −2 to day 0, baseline iron intake and output values were measured. This same measurement was made for day +1 to day +3. The total amount of iron intake was compared with the total amount of iron excreted.
# Fecal and urine samples were collected at 24 hour intervals. The collections began four days prior to the administration of the test drug and continued for an additional five days after the drug was given. Fecal samples were assayed for the presence of occult blood, weighed, and mixed with distilled deionized water prior to autoclaving for 30 minutes. The mixture was then freeze-dried, and a known portion of the powder was mixed with low-iron nitric acid and refluxed for 24 hours. Once any particulate matter in the digested samples was removed by centrifugation, iron concentrations were determined by flame atomic absorption. Monkey urine samples were acidified and reconstituted to initial volume after sterilization, if necessary.
# In the primates, DFOM was administered s.c. in sterile water for injection at a dose of 150 μmoles/Kg, while HBED was first dissolved in a phosphate buffer, ph 7.4, thus forming the mono-sodium salt and given s.c. in 40% wt./vol. Cremophor RH40 at a dose of 75 or 150 μmoles/Kg. In addition, in order to more closely mimic clinical applications in patients, mono-sodium HBED was also given to the monkeys s.c. at a dose of 150 μmoles/Kg in a phosphate buffer; no Cremophor vehicle was used.
# The efficiency of each chelator was calculated on the basis of a 1:1 ligand-iron complex.
# Groups of monkeys (n=6 in each group) were given s.c. injections of either DFOM or MS HBED. […] In our initial experiments, HBED monohydrochloride monohydrate was dissolved in a phosphate buffer at p.7.2 to form a solution of the MS HBED and administered in 40% wt./vol. […] HBED monohydrochloride monohydrate-Cremophor was administered by s.c. injection at doses of 75 or 150 μmoles/Kg.
# [2] = system: Cebus apella monkeys with iron overload; settings: cited from earlier work
# [3] = typical, background statement; cited from earlier work
# Water solubility = type: physicochemical
# human patients = settings: oral; cited from earlier work
smiles,measurement,setting,value
"CC(=O)N(O)CCCCCNC(=O)CCC(=O)N(O)CCCCCNC(=O)CCC(=O)N(O)CCCCCN [DFOM, desferrioxamine B mesylate]",share of chelator-induced iron excretion in the stool,[1]; aqueous solution,about 65%
same,share of chelator-induced iron excretion in the urine,[1]; aqueous solution,about 35%
same,chelator-induced iron excretion,"[1]; aqueous solution, n=6",435±115 μg Fe/Kg body weight
same,efficiency of iron chelation,[1]; aqueous solution,5.1±1.3%
same,activity in the Cebus apella monkey screen compared with oral HBED or its dimethyl ester,[2]; DFOM subcutaneous vs HBED or dimethyl ester oral,significantly higher activity
same,share of the compound administered that binds iron,[3],≤ 5%
Cl.O.O=C(O)CN(CCN(CC(=O)O)Cc1ccccc1O)Cc1ccccc1O [HBED monohydrochloride monohydrate],water solubility,Water solubility,low water solubility
"O=C([O-])CN(CCN(CC(=O)O)Cc1ccccc1O)Cc1ccccc1O.[Na+] [MS HBED, HBED, monosodium salt]","mean net iron excretion, phosphate buffer vs Cremophor preparation",[1]; P>0.2,no significant difference
same,share of chelator-induced iron excretion in the stool,[1]; phosphate buffer,about 92%
same,share of chelator-induced iron excretion in the urine,[1]; phosphate buffer,about 8%
same,iron excretion relative to DFOM,"[1]; phosphate buffer vs DFOM s.c. 150 μmoles/Kg, P<0.001",about twice
same,chelator-induced iron excretion,"[1]; phosphate buffer, no Cremophor",899±193 μg Fe/Kg body weight
same,efficiency of iron chelation,[1]; phosphate buffer,10.7±2.3%
"O=C(O)CN(CCN(CC(=O)O)Cc1ccccc1O)Cc1ccccc1O [HBED, N,N′-bis(2-hydroxybenzyl)ethylenediamine-N,N′-diacetic acid]",chelator-induced iron excretion,"[2]; oral, phosphate buffer, previously published study",50±44 μg Fe/Kg body weight
same,share of chelator-induced iron excretion in the stool,"[2]; oral, phosphate buffer",about 56%
same,share of chelator-induced iron excretion in the urine,"[2]; oral, phosphate buffer",about 44%
same,efficiency of iron chelation,"[2]; oral, phosphate buffer, mean",0.5±0.5%
same,level of iron excretion for treatment of iron overload,human patients,ineffective
